Reference: patent US20090088411A1, “No-donating corticosteroid with improved pharmacokinetic, anti-inflammatory and vasodilatory properties” (Topigen Pharmaceuticals Inc., priority 2007, published 2009)

Assays:
[1] = tested on: sputum neutrophils; experiment: Sputum differential cell count: neutrophils; assay type: in vivo, humans; conditions: for median sputum neutrophils: all patients
Source text: (§1) A clinical study was undertaken in humans to test certain aspects of a preferred NO-donating budesonide derivative, TPI-1020, as compared to the corticosteroid, budesonide which was not modified with a NO-donating moiety. Specifically, the objectives of this study were to determine the safety, pharmacodynamic and pharmacokinetic activity of multiple doses of inhaled NO-donating budesonide derivatives compared to that of equimolar doses of inhaled budesonide in subjects with mild asthma who smoke. We chose patients with asthma who smoke since these patients had reported to have not only an increase in eNO but also an increase in neutrophils within their sputum (as described in COPD). While assessing the safety of these compounds in such patients we could thus explore the effects of the same in patients with increased sputum neutrophils.
(§2) Although this study was only powered for neutrophils, the following parameters were also evaluated: sputum total cell and differential cell counts, using known methods, on days 0, 15 and day 22; pre-dose FEV1 measurements on days 0, 1, 14, 15 and 22; peak flow measurements throughout the study (miniwright meter); use of daily rescue medication (salbutamol) throughout the study; the response to methacholine challenge test; and the eNO levels (chemiluminescence after reaction with ozone) on days 0, 15 and 22 and plasma CRP levels on days 0, 15 and 22.
(§3) Those subjects who completed the 14-day run-in period were assigned to receive either an inhaled version of a compound of the present invention (in this case, budesonide 21-(4′-nitrooxymethyl)benzoate, designated hereafter as “TPI-1020”) or budesonide over a 21-day period. The doses administered were based on equimolar amounts of budesonide and were as follows: budesonide 400 μg bid for 14 days then 800 μg bid for 7 days; TPI-1020: 600 μg bid for 14 days then 1200 μg bid for 7 days. Study treatments were delivered in lactose-based blends using the capsule-based Aeroliser dry powder inhaler. Budesonide capsules (Miflonide®, Novartis Pharmaceuticals) delivered 383 μg as compared to 423 μg of budesonide for TPI-1020 (equivalent to 9.5% more budesonide delivered to the body in the TPI-1020 group). However, the fine particle dose of budesonide was 104 μg for the budesonide capsules and only 78 μg for the TPI-1020 capsules (equivalent to 25% less budesonide delivered to the lung in the TPI-1020 group). No other asthma medication except rescue salbutamol was permitted during the study.
The sample size was chosen to provide information about the primary study objective (safety) and with the power to detect a 20% difference in the decrease in sputum neutrophils with TPI-1020, versus that occurring with budesonide. There are no published studies in mild smokers with asthma that have described the variability in sputum neutrophils. However, based on the COPD publication by Gamble et al., almost all patients with COPD have increased sputum neutrophils (>20%). We calculated that if 13 subjects per group completed the study, a difference of 20% in neutrophils (%) between groups could be detected with a power of 80%.

[2] = Peak flow measurements (PEF, miniwright meter); assay type: in vivo, humans; conditions: mean (SD)
Procedure: as §2, §3

[3] = tested on: blood lymphocytes; experiment: Blood lymphocytes; assay type: in vivo, humans; conditions: mean (SD)
Procedure: as §3

[4] = tested on: C-reactive protein (CRP); experiment: Plasma CRP levels; assay type: in vivo, humans; conditions: for CRP (mg/L): mean (SD)
Procedure: as §2, §3

[5] = tested on: HPA (hypothalamic-pituitary-adrenal) axis; experiment: 24-hour urinary free cortisol; conditions: vs baseline
Source text: (§4) This undesirable HPA axis suppression is typically measured by a reduction in urinary cortisol excretion.
(§5) Safety parameters consisted of adverse events and serious adverse events, vital signs, asthma symptoms, laboratory determinations of CBC, urinalysis, regular blood biochemistry, plasma C-reactive protein (CRP), plasma and urinary free cortisol levels, spirometry and electrocardiograms (ECGs).

[6] = tested on: HPA (hypothalamic-pituitary-adrenal) axis; experiment: Morning plasma cortisol level
Source text: as §4, §5

[7] = Supine and standing blood pressure (vital signs), clinical study; assay type: in vivo, humans; conditions: after 22 days; p=0.015 between groups
Procedure: as §3

[8] = Use of daily rescue medication (salbutamol); assay type: in vivo, humans; conditions: mean (SD)
Procedure: as §2, §3

[9] = FEV1 spirometry; assay type: in vivo, humans; conditions: mean (SD)
Procedure: as §2, §3

[10] = tested on: blood eosinophils; experiment: Blood eosinophils; assay type: in vivo, humans; conditions: mean (SD)
Procedure: as §3

[11] = tested on: exhaled nitric oxide (eNO); experiment: Exhaled NO levels (chemiluminescence); assay type: in vivo, humans; conditions: for eNO (ppb): mean (SD)
Procedure: as §2, §3

[12] = tested on: sputum eosinophils; experiment: Sputum differential cell count: eosinophils; assay type: in vivo, humans; conditions: mean (SD)
Procedure: as §2, §3

[13] = Asthma control scoring system questionnaire (ACSS); assay type: in vivo, humans; conditions: mean (SD)
Procedure: as §3

[14] = Methacholine challenge test (PC20); assay type: in vivo, humans; conditions: mean (SD)
Procedure: as §2, §3

[15] = design: species or system humans; conditions: human, in vivo
Source text: as §1, §3
The total number of adverse events reported by patients receiving budesonide and TPI-1020 is graphically depicted in FIG. 1. More specifically, FIG. 1 depicts the total number of either treatment-related or physician-determined adverse events for each drug during the 21 day therapeutic period.

SMILES: CCCC1O[C@@H]2C[C@H]3[C@@H]4CCC5=CC(=O)C=C[C@]5(C)[C@H]4[C@@H](O)C[C@]3(C)[C@]2(C(=O)CO)O1 (some centres unmarked) [budesonide, reference compound]
- mean sputum neutrophils ([1]; after 22 days, post hoc, patients with baseline sputum neutrophils <20% (normal)): 3.95%
- mean sputum neutrophils ([1]; after 22 days, post hoc, patients with baseline sputum neutrophils >20%): 51.9%
- mean sputum neutrophils ([1]; baseline, post hoc, patients with baseline sputum neutrophils <20% (normal)): 4.25%
- mean sputum neutrophils ([1]; baseline, post hoc, patients with baseline sputum neutrophils >20%): 55.1%
- median sputum neutrophils ([1]; day 0 prior to therapy): 39.6%
- increase in median sputum neutrophils ([1]; day 0 to day 22, all patients): 3.7%
- median sputum neutrophils ([1]; day 22 (end of therapy)): 41.1%
- decrease in mean sputum neutrophils ([1]; over 22 days, post hoc, patients with baseline sputum neutrophils >20%): 5.8%
- PEF (AM, L/min) ([2]; Baseline): 405.5 (91) L/min
- PEF (AM, L/min) ([2]; Day 22): 423.4 (89.5) L/min
- Blood lymphocytes (%) ([3]; Baseline): 14.9 (13) %
- Blood lymphocytes (%) ([3]; Day 22): 22.5 (15.8) %
- patients in whom CRP decreased ([4]; 22 days of therapy compared to baseline): 33.2%
- CRP (mg/L) ([4]; Baseline): 2.7 (4.3) mg/L
- CRP (mg/L) ([4]; Day 22): 2.5 (1.4) mg/L
- increase in plasma CRP ([4]; day 15 versus baseline, p=0.03 between groups): 0.7 mg/L
- effect on 24-hour urinary free cortisol [5]: significantly decreased
- morning plasma cortisol level ([6]; baseline): 13.1 µg/dL
- morning plasma cortisol level ([6]; day 15): 10.9 µg/dL
- morning plasma cortisol level ([6]; day 22): 11.4 µg/dL
- change in standing pulse pressure [7]: +4.85 mmHg
- Doses of Rescue Rx ([8]; Baseline): 17 (15)
- Rescue free days (%) ([8]; Baseline): 40.9 (41) %
- Doses of Rescue Rx ([8]; Day 22): 3.5 (4)
- Rescue free days (%) ([8]; Day 22): 68.4 (32) %
- FEV1 (ITT, L) ([9]; Baseline): 3.3 (0.8) L
- FEV1 (PD, L) ([9]; Baseline): 3.2 (0.7) L
- FEV1 (PD, L) ([9]; Day 1): 3.1 (0.6) L
- FEV1 (PD, L) ([9]; Day 14): 3.3 (0.7) L
- FEV1 (PD, L) ([9]; Day 15): 3.3 (0.7) L
- FEV1 (ITT, L) ([9]; Day 22): 3.3 (0.8) L
- FEV1 (PD, L) ([9]; Day 22): 3.3 (0.7) L
- Blood eos (%) ([10]; Baseline): 2.3 (2.3) %
- Blood eos (%) ([10]; Day 22): 2.1 (1.6) %
- eNO (ppb) ([11]; Baseline): 19 (17.6) ppb
- eNO (ppb) ([11]; Day 22): 9.8 (7.6) ppb
- decrease in eNO ([11]; equimolar doses, baseline to day 22): 9.2 ppb
- Sputum eos (%) ([12]; Baseline): 2.4 (3.3) %
- Sputum eos (%) ([12]; Day 22): 1.0 (1.0) %
- ACSS ([13]; Baseline): 73.1 (14)
- ACSS ([13]; Day 22): 82.4 (8.4)
- PC20 (mg/ml) ([14]; Baseline): 1.4 (1.3) mg/ml
- PC20 (mg/ml) ([14]; Day 22): 2.0 (1.6) mg/ml
- severe adverse events [15]: one
- drug-related adverse events ([15]; 21 days): 9
- number of subjects that reported adverse events ([15]; 21 days): 7
- total treatment-emergent adverse events ([15]; 21 days): 39
